The source of these data is paper PMC5218480 (PLoS ONE, 2017).

The test has as its system MV-4-11 cells. Kind of test: Gene expression microarray analysis (Affymetrix PrimeView) and GSEA. To be noted: MV-4-11 cells, 48 hours. It is filed as cell-based, human. Also noted: RFU PODN (11730768_x_at) / Fold change /veh PODN (11730768_x_at) / RFU LINC00158 (11744669_a_at) / Fold change /veh LINC00158 (11744669_a_at) / RFU DUSP10 (11751237_a_at) / Fold change /veh DUSP10 (11751237_a_at) / RFU ID3 (11757404_x_at) / Fold change /veh ID3 (11757404_x_at) / RFU PLEKHG5 (11737974_s_at) / Fold change /veh PLEKHG5 (11737974_s_at) / RFU LRRC4B (11730491_at) / Fold change /veh LRRC4B (11730491_at) / RFU GIMAP4 (11747438_a_at) / Fold change /veh GIMAP4 (11747438_a_at) / RFU KRT8 (11758183_x_at) / Fold change /veh KRT8 (11758183_x_at) / RFU CNN1 (11734310_a_at) / Fold change /veh CNN1 (11734310_a_at) / RFU VPS37D (11726825_at) / Fold change /veh VPS37D (11726825_at) / RFU C10orf10 (11716522_x_at) / Fold change /veh C10orf10 (11716522_x_at) / RFU KIR2DL2 /// KIR2DL4 /// KIR2DL5A /// KIR2DL5B /// KIR2DS1 /// KIR2DS2 /// KIR2DS3 /// KIR2DS4 /// KIR3DL3 /// KIR3DL3 /// KIR3DS1 (11738374_at) / Fold change /veh KIR2DL2 /// KIR2DL4 /// KIR2DL5A /// KIR2DL5B /// KIR2DS1 /// KIR2DS2 /// KIR2DS3 /// KIR2DS4 /// KIR3DL3 /// KIR3DL3 /// KIR3DS1 (11738374_at) / RFU C1QL1 (11718748_at) / Fold change /veh C1QL1 (11718748_at) / RFU TMPRSS4 (11747572_a_at) / Fold change /veh TMPRSS4 (11747572_a_at) / RFU HAMP (11756126_x_at) / Fold change /veh HAMP (11756126_x_at) / RFU RNFT2 (11725882_a_at) / Fold change /veh RNFT2 (11725882_a_at) / RFU NR4A2 (11747474_a_at) / Fold change /veh NR4A2 (11747474_a_at) / RFU ABCC12 (11746883_a_at) / Fold change /veh ABCC12 (11746883_a_at) / RFU TMEM136 (11760407_x_at) / Fold change /veh TMEM136 (11760407_x_at) / RFU CLDN22 /// WWC2 (11732394_at) / Fold change /veh CLDN22 /// WWC2 (11732394_at) / RFU HLA-DPB1 (11760878_x_at) / Fold change /veh HLA-DPB1 (11760878_x_at) / RFU SPINT1 (11716480_a_at) / Fold change /veh SPINT1 (11716480_a_at) / RFU GAP43 (11754022_s_at) / Fold change /veh GAP43 (11754022_s_at) / RFU A4GNT (11735810_at) / Fold change /veh A4GNT (11735810_at) / RFU PRB3 (11715151_x_at) / Fold change /veh PRB3 (11715151_x_at) / RFU TUBB4B (11761932_at) / Fold change /veh TUBB4B (11761932_at) / RFU CAPN14 (11732068_a_at) / Fold change /veh CAPN14 (11732068_a_at) / RFU TMCC2 (11721928_a_at) / Fold change /veh TMCC2 (11721928_a_at) / RFU IRGQ (11745062_a_at) / Fold change /veh IRGQ (11745062_a_at) / RFU FAM174B (11720279_a_at) / Fold change /veh FAM174B (11720279_a_at) / RFU TMPRSS4 (11748680_a_at) / Fold change /veh TMPRSS4 (11748680_a_at) / RFU FAM212B (11763350_a_at) / Fold change /veh FAM212B (11763350_a_at) / RFU PLEKHG5 (11743358_a_at) / Fold change /veh PLEKHG5 (11743358_a_at) / RFU ZSCAN30 (11745921_a_at) / Fold change /veh ZSCAN30 (11745921_a_at) / RFU CMKLR1 (11741424_a_at) / Fold change /veh CMKLR1 (11741424_a_at) / RFU LOC101060620 /// MAPK8IP1 (11723275_at) / Fold change /veh LOC101060620 /// MAPK8IP1 (11723275_at) / RFU SPTSSB (11747773_x_at) / Fold change /veh SPTSSB (11747773_x_at) / RFU PRSS12 (11739890_at) / Fold change /veh PRSS12 (11739890_at) / RFU BIN1 (11741810_x_at) / Fold change /veh BIN1 (11741810_x_at) / RFU WNT11 (11732464_a_at) / Fold change /veh WNT11 (11732464_a_at) / RFU C10orf10 (11716521_a_at) / Fold change /veh C10orf10 (11716521_a_at) / RFU C5orf56 (11738089_at) / Fold change /veh C5orf56 (11738089_at) / RFU CYB561 (11721691_x_at) / Fold change /veh CYB561 (11721691_x_at) / RFU ANKRD19P (11752326_a_at) / Fold change /veh ANKRD19P (11752326_a_at) / RFU OR2T12 /// OR2T33 /// OR2T8 (11738714_s_at) / Fold change /veh OR2T12 /// OR2T33 /// OR2T8 (11738714_s_at) / RFU VCAN (11748164_a_at) / Fold change /veh VCAN (11748164_a_at) / RFU JSRP1 (11732532_at) / Fold change /veh JSRP1 (11732532_at) / RFU KRTAP10-11 (11738290_x_at) / Fold change /veh KRTAP10-11 (11738290_x_at) / RFU MYO3A (11730013_a_at) / Fold change /veh MYO3A (11730013_a_at) / RFU EBF3 (11725865_a_at) / Fold change /veh EBF3 (11725865_a_at) / RFU CAMK2N1 (11719241_x_at) / Fold change /veh CAMK2N1 (11719241_x_at) / RFU C5orf56 (11738088_a_at) / Fold change /veh C5orf56 (11738088_a_at) / RFU OLFML3 (11715873_a_at) / Fold change /veh OLFML3 (11715873_a_at) / RFU LOC100653217 /// NTM (11731650_a_at) / Fold change /veh LOC100653217 /// NTM (11731650_a_at) / RFU MAPK11 (11762145_a_at) / Fold change /veh MAPK11 (11762145_a_at) / RFU FIZ1 (11724087_x_at) / Fold change /veh FIZ1 (11724087_x_at) / RFU OASL (11726364_x_at) / Fold change /veh OASL (11726364_x_at) / RFU SOX15 (11748057_x_at) / Fold change /veh SOX15 (11748057_x_at) / RFU CD79A (11719716_a_at) / Fold change /veh CD79A (11719716_a_at) / RFU HIST1H1D (11736915_at) / Fold change /veh HIST1H1D (11736915_at) / RFU CASKIN2 (11723855_a_at) / Fold change /veh CASKIN2 (11723855_a_at) / RFU LOC730098 (11760151_x_at) / Fold change /veh LOC730098 (11760151_x_at) / RFU OR4N2 (11742367_at) / Fold change /veh OR4N2 (11742367_at) / RFU PRRT2 (11749266_a_at) / Fold change /veh PRRT2 (11749266_a_at) / RFU SNX32 (11753110_a_at) / Fold change /veh SNX32 (11753110_a_at) / RFU CDHR5 (11726645_a_at) / Fold change /veh CDHR5 (11726645_a_at) / RFU RCAN1 (11760418_a_at) / Fold change /veh RCAN1 (11760418_a_at) / RFU FAM167A (11723789_a_at) / Fold change /veh FAM167A (11723789_a_at) / RFU FAM26E (11764081_at) / Fold change /veh FAM26E (11764081_at) / RFU ISYNA1 (11749810_s_at) / Fold change /veh ISYNA1 (11749810_s_at) / RFU ACY1 (11761880_at) / Fold change /veh ACY1 (11761880_at) / RFU 11764098_at / Fold change /veh 11764098_at / RFU SAMD14 (11745864_x_at) / Fold change /veh SAMD14 (11745864_x_at) / RFU NPB (11741838_a_at) / Fold change /veh NPB (11741838_a_at) / RFU TMPRSS6 (11731388_a_at) / Fold change /veh TMPRSS6 (11731388_a_at) / RFU KRTAP10-2 (11738614_at) / Fold change /veh KRTAP10-2 (11738614_at) / RFU ARHGAP8 /// PRR5-ARHGAP8 (11727945_x_at) / Fold change /veh ARHGAP8 /// PRR5-ARHGAP8 (11727945_x_at) / RFU KRTAP5-7 /// NADSYN1 (11734609_at) / Fold change /veh KRTAP5-7 /// NADSYN1 (11734609_at) / RFU RASL12 (11751679_a_at) / Fold change /veh RASL12 (11751679_a_at) / RFU CDKN2B (11736163_a_at) / Fold change /veh CDKN2B (11736163_a_at) / RFU PRF1 (11729649_at) / Fold change /veh PRF1 (11729649_at) / RFU, ZNF638 /// ZNF638-IT1 / Fold change vs veh, ZNF638 /// ZNF638-IT1 / RFU, PANK3 / Fold change vs veh, PANK3 / RFU, SH3YL1 / Fold change vs veh, SH3YL1 / RFU, ZEB2 / Fold change vs veh, ZEB2 / RFU, NRIP1 / Fold change vs veh, NRIP1 / RFU, PTTG1IP / Fold change vs veh, PTTG1IP / RFU, CAPN2 / Fold change vs veh, CAPN2 / RFU, MED14 / Fold change vs veh, MED14 / RFU, SNORA58 / Fold change vs veh, SNORA58 / RFU, C1orf63 / Fold change vs veh, C1orf63 / RFU, LRRFIP1 / Fold change vs veh, LRRFIP1 / RFU, NDUFAF7 / Fold change vs veh, NDUFAF7 / RFU, SLC12A2 / Fold change vs veh, SLC12A2 / RFU, IBTK / Fold change vs veh, IBTK / RFU, ESF1 / Fold change vs veh, ESF1 / Fold change vs veh, TMEM50B / RFU, TAOK1 / Fold change vs veh, TAOK1 / RFU, ACBD3 / Fold change vs veh, ACBD3 / RFU, TMA16 / Fold change vs veh, TMA16 / RFU, RWDD3 / Fold change vs veh, RWDD3 / RFU, BCAT1 / Fold change vs veh, BCAT1 / RFU, EDEM3 / Fold change vs veh, EDEM3 / RFU, TMEM33 / Fold change vs veh, TMEM33 / RFU, WDR75 / Fold change vs veh, WDR75 / RFU, AHCTF1 / Fold change vs veh, AHCTF1 / RFU, TFRC / Fold change vs veh, TFRC / RFU, ZDHHC17 / Fold change vs veh, ZDHHC17 / RFU, NOM1 / Fold change vs veh, NOM1 / RFU, ARL8B / Fold change vs veh, ARL8B / RFU, ZBTB11 / Fold change vs veh, ZBTB11 / RFU, TAMM41 / Fold change vs veh, TAMM41 / RFU, KIAA1704 /// LOC100996395 / Fold change vs veh, KIAA1704 /// LOC100996395 / RFU, ING1 / Fold change vs veh, ING1 / RFU, TRMT61B / Fold change vs veh, TRMT61B / RFU, FUBP3 / Fold change vs veh, FUBP3 / RFU, TP53 / Fold change vs veh, TP53 / RFU, TNKS2 / Fold change vs veh, TNKS2 / RFU, ZFP14 / Fold change vs veh, ZFP14 / RFU, ACTR2 / Fold change vs veh, ACTR2 / RFU, PPP3R1 / Fold change vs veh, PPP3R1 / RFU, PIK3R1 / Fold change vs veh, PIK3R1 / RFU, HNRNPA1 / Fold change vs veh, HNRNPA1 / RFU, RNF170 / Fold change vs veh, RNF170 / RFU, ZNF28 / Fold change vs veh, ZNF28 / RFU, RNGTT / Fold change vs veh, RNGTT / RFU, OGT / Fold change vs veh, OGT / RFU, BRD1 / Fold change vs veh, BRD1 / RFU, MARS / Fold change vs veh, MARS / RFU, ZNF655 / Fold change vs veh, ZNF655 / RFU, FAHD1 / Fold change vs veh, FAHD1 / RFU, BDP1 / Fold change vs veh, BDP1 / RFU, LRRCC1 / Fold change vs veh, LRRCC1 / RFU, ARID1A / Fold change vs veh, ARID1A / RFU, ZNF146 / Fold change vs veh, ZNF146 / RFU, ZNF330 / Fold change vs veh, ZNF330 / RFU, GPN3 / Fold change vs veh, GPN3 / RFU, C9orf123 / Fold change vs veh, C9orf123 / RFU, N4BP2L2 / Fold change vs veh, N4BP2L2 / RFU, ARFIP1 / Fold change vs veh, ARFIP1 / RFU, FAM179B / Fold change vs veh, FAM179B / RFU, BCL10 / Fold change vs veh, BCL10 / RFU, UHRF1BP1L / Fold change vs veh, UHRF1BP1L / RFU, BET1 / Fold change vs veh, BET1 / RFU, CNOT2 / Fold change vs veh, CNOT2 / RFU, ZNF268 / Fold change vs veh, ZNF268 / Fold change vs veh, ZNF507 / RFU, DGCR2 / Fold change vs veh, DGCR2 / RFU, WDSUB1 / Fold change vs veh, WDSUB1 / Fold change vs veh, HSP90B1 /// MIR3652 / RFU, ADSS / Fold change vs veh, ADSS / RFU, GK / Fold change vs veh, GK / RFU, ZNF148 / Fold change vs veh, ZNF148 / RFU, TAF9 / Fold change vs veh, TAF9 / RFU, SLC1A5 / Fold change vs veh, SLC1A5 / RFU, SLMO2 / Fold change vs veh, SLMO2 / RFU, ABCC4 / Fold change vs veh, ABCC4 / RFU, LOC101060439 /// RAP1B / Fold change vs veh, LOC101060439 /// RAP1B / RFU, RFX7 / Fold change vs veh, RFX7 / RFU, GTPBP10 / Fold change vs veh, GTPBP10 / RFU, CNEP1R1 / Fold change vs veh, CNEP1R1 / RFU, BIVM-ERCC5 /// ERCC5 / Fold change vs veh, BIVM-ERCC5 /// ERCC5 / RFU, ILF3 / Fold change vs veh, ILF3 / RFU 11762660_at / Fold change /veh 11762660_at / RFU VCAN (11757783_s_at) / Fold change /veh VCAN (11757783_s_at) / RFU DDX43 (11728927_at) / Fold change /veh DDX43 (11728927_at) / RFU KRT8 (11758188_x_at) / Fold change /veh KRT8 (11758188_x_at) / RFU NKD1 (11759106_at) / Fold change /veh NKD1 (11759106_at) / RFU SRD5A1 (11742802_a_at) / Fold change /veh SRD5A1 (11742802_a_at) / RFU TPSAB1 /// TPSB2 (11721975_s_at) / Fold change /veh TPSAB1 /// TPSB2 (11721975_s_at) / RFU GSTM3 (11746129_a_at) / Fold change /veh GSTM3 (11746129_a_at) / RFU IL23R (11737362_x_at) / Fold change /veh IL23R (11737362_x_at) / RFU TMEM51 (11727254_a_at) / Fold change /veh TMEM51 (11727254_a_at) / RFU PIWIL2 (11732686_x_at) / Fold change /veh PIWIL2 (11732686_x_at) / RFU ORM1 (11744905_x_at) / Fold change /veh ORM1 (11744905_x_at) / RFU CCDC152 (11743942_at) / Fold change /veh CCDC152 (11743942_at) / RFU ECM1 (11717891_a_at) / Fold change /veh ECM1 (11717891_a_at) / RFU IL23R (11748794_a_at) / Fold change /veh IL23R (11748794_a_at) / RFU TNFAIP8L3 (11732012_x_at) / Fold change /veh TNFAIP8L3 (11732012_x_at) / RFU MBOAT4 (11741988_at) / Fold change /veh MBOAT4 (11741988_at) / RFU 11764193_at / Fold change /veh 11764193_at / RFU TMEM53 (11763286_at) / Fold change /veh TMEM53 (11763286_at) / RFU MAGEB2 (11727129_at) / Fold change /veh MAGEB2 (11727129_at) / RFU TMEM200A (11744735_a_at) / Fold change /veh TMEM200A (11744735_a_at) / RFU CCDC152 (11751479_a_at) / Fold change /veh CCDC152 (11751479_a_at) / RFU FAM211A (11726209_a_at) / Fold change /veh FAM211A (11726209_a_at) / RFU RGS16 (11746705_a_at) / Fold change /veh RGS16 (11746705_a_at) / RFU VCAN (11755009_s_at) / Fold change /veh VCAN (11755009_s_at) / RFU RHOB (11743442_s_at) / Fold change /veh RHOB (11743442_s_at) / RFU RGS16 (11720943_a_at) / Fold change /veh RGS16 (11720943_a_at) / RFU RGS16 (11720944_at) / Fold change /veh RGS16 (11720944_at) / RFU, VPS4B / Fold change vs veh, VPS4B / RFU, CREB1 / Fold change vs veh, CREB1 / RFU, DNAJC13 / Fold change vs veh, DNAJC13 / RFU, GNAQ / Fold change vs veh, GNAQ / RFU, CDK5R1 / Fold change vs veh, CDK5R1 / RFU, ZRANB3 / Fold change vs veh, ZRANB3 / RFU, CUL4A / Fold change vs veh, CUL4A / RFU, CCNY / Fold change vs veh, CCNY / RFU, UFL1 / Fold change vs veh, UFL1 / RFU, COG3 / Fold change vs veh, COG3 / RFU, DIAPH2 / Fold change vs veh, DIAPH2 / RFU, SKA2 / Fold change vs veh, SKA2 / RFU, AFF3 / Fold change vs veh, AFF3 / RFU, LMF1 / Fold change vs veh, LMF1 / RFU, IPO11 / Fold change vs veh, IPO11 / RFU, DFFB / Fold change vs veh, DFFB / RFU, FOXP1 / Fold change vs veh, FOXP1 / RFU, CARD8 / Fold change vs veh, CARD8 / RFU, STRN3 / Fold change vs veh, STRN3 / RFU, ADK / Fold change vs veh, ADK / RFU, RASSF2 / Fold change vs veh, RASSF2 / RFU, WIPF1 / Fold change vs veh, WIPF1 / RFU, LARP1B / Fold change vs veh, LARP1B / RFU, RASA1 / Fold change vs veh, RASA1 / RFU, RB1 / Fold change vs veh, RB1 / RFU, PPFIA1 / Fold change vs veh, PPFIA1 / RFU, MAT2A / Fold change vs veh, MAT2A / RFU, CCT5 / Fold change vs veh, CCT5 / RFU, WDR92 / Fold change vs veh, WDR92 / RFU, CUX1 / Fold change vs veh, CUX1 / RFU, TTC7A / Fold change vs veh, TTC7A / RFU, TMEM135 / Fold change vs veh, TMEM135 / RFU, DEPTOR / Fold change vs veh, DEPTOR / RFU, CPM / Fold change vs veh, CPM / RFU, DNAJB6 / Fold change vs veh, DNAJB6 / RFU, CACNA2D3 / Fold change vs veh, CACNA2D3 / RFU, DTX4 / Fold change vs veh, DTX4 / RFU, TFCP2 / Fold change vs veh, TFCP2 / RFU, GMCL1 /// GMCL1P1 / Fold change vs veh, GMCL1 /// GMCL1P1 / RFU, AEBP2 / Fold change vs veh, AEBP2 / RFU, SNHG1 /// SNORD22 /// SNORD25 /// SNORD26 /// SNORD27 /// SNORD28 /// SNORD29 /// SNORD31 / Fold change vs veh, SNHG1 /// SNORD22 /// SNORD25 /// SNORD26 /// SNORD27 /// SNORD28 /// SNORD29 /// SNORD31 / Fold change (Aza/veh), C12orf56 (ProbeSet 11735607_a_at) / Fold change (ACY-1035/veh), C12orf56 (ProbeSet 11735607_a_at) / Fold change (Aza/veh), FGFR1OP (ProbeSet 11751329_s_at) / Fold change (ACY-1035/veh), FGFR1OP (ProbeSet 11751329_s_at) / Fold change (Aza/veh), VPS36 (ProbeSet 11739960_a_at) / Fold change (ACY-1035/veh), VPS36 (ProbeSet 11739960_a_at) / RFU SYPL1 (11715823_x_at) / Fold change /veh SYPL1 (11715823_x_at) / RFU IGFBP7 (11715501_s_at) / Fold change /veh IGFBP7 (11715501_s_at) / RFU REEP3 (11722064_at) / Fold change /veh REEP3 (11722064_at) / RFU IGLL1 (11728026_x_at) / Fold change /veh IGLL1 (11728026_x_at): dose or concentration left out as unconfirmed.

Take `Nc1ccc(-c2cccs2)cc1NC(=O)c1ccc2c(c1)cc(C1CC1)n2CCN1CCOCC1` [ACY-1035]: the “RFU TMEM200A (11744735_a_at)” value is reported as 5.05 RFU.
